Data set [1] deals with Human immunodeficiency virus 2. Put plainly: Antiviral activity against HIV-2 ROD infected in human MT4 cells assessed as protection against virus induced cytopathic effect and measured after 5 days by MTT spectrophotometric assay. In kind it is functional, organism-based. Conditions: Human immunodeficiency virus 2, ROD, MT4, 120 h.
A short description of data set [2]: Cytotoxicity against human MT4 cells assessed as reduction in cell viability incubated for 5 days by MTT spectrophotometric assay. Format: toxicity, cell-based. The settings on record: time 5 day. (Tetrazolium assays rely on reduction of a dye to a coloured formazan, in cell work by metabolically active cells.)
The target of data set [3] is Human immunodeficiency virus type 1 reverse transcriptase (Human immunodeficiency virus 1, UniProt Q72547). The data set is described as follows: Inhibition of HIV-1 reverse transcriptase using [2,8-3H]dGTP as substrate by […] assay.
Data set [4] has as its system Human immunodeficiency virus 1. Put plainly: Antiviral activity against HIV-1 L100I mutant infected in human MT4 cells assessed as protection against virus induced cytopathic effect and measured after 5 days by MTT spectrophotometric assay. In kind it is functional, organism-based. The settings on record: Human immunodeficiency virus 1, MT4, 120 h. A general note: Cytopathic effects are the visible damage that an infection or toxin causes in cultured cells.

Data set [5] deals with Human immunodeficiency virus 1. The data set is described as follows: Antiviral activity against HIV-1 K103 N mutant infected in human MT4 cells assessed as protection against virus induced cytopathic effect and measured after 5 days by MTT spectrophotometric assay. Format: functional, organism-based. Conditions: Human immunodeficiency virus 1, MT4, 120 h.
Data set [6] relates to Human immunodeficiency virus 1. The data set is described as follows: Antiviral activity against HIV-1 Y181C mutant infected in human MT4 cells assessed as protection against virus induced cytopathic effect and measured after 5 days by MTT spectrophotometric assay. In kind it is functional, organism-based. Conditions: Human immunodeficiency virus 1, MT4, 120 h.
Data set [7] deals with Human immunodeficiency virus 1. The data set is described as follows: Antiviral activity against HIV-1 Y188L mutant infected in human MT4 cells assessed as protection against virus induced cytopathic effect and measured after 5 days by MTT spectrophotometric assay. In kind it is functional, organism-based. Conditions: Human immunodeficiency virus 1, MT4, 120 h.
The subject of data set [8] is Human immunodeficiency virus 1. Put plainly: Antiviral activity against HIV-1 E138K mutant infected in human MT4 cells assessed as protection against virus induced cytopathic effect and measured after 5 days by MTT spectrophotometric assay. In kind it is functional, organism-based. Conditions: Human immunodeficiency virus 1, MT4, 120 h.
The subject of data set [9] is Human immunodeficiency virus 1. The data set is described as follows: Antiviral activity against HIV-1 RES056 mutant infected in human MT4 cells assessed as protection against virus induced cytopathic effect and measured after 5 days by MTT spectrophotometric assay. In kind it is functional, organism-based. Conditions: Human immunodeficiency virus 1, MT4, 120 h.
Data set [10] has as its system Human immunodeficiency virus 1. The data set is described as follows: Antiviral activity against HIV-1 F227L-V106A mutant infected in human MT4 cells assessed as protection against virus induced cytopathic effect and measured after 5 days by MTT spectrophotometric assay. Format: functional, organism-based. Conditions: Human immunodeficiency virus 1, MT4, 120 h.
Another data set is described as follows: in vitro. Conditions: human, MT4 cells.
Data set [11] concerns Human immunodeficiency virus 1. Put plainly: microbe, parasite or virus in culture. Conditions: Human immunodeficiency virus 1, IIIb, MT4, 120 h.
Description: Antiviral activity against HIV-1 IIIb infected in human MT4 cells assessed as protection against virus induced cytopathic effect and measured after 5 days by MTT spectrophotometric assay

A value given as a limit tells only on which side of the number the result lay.

As a reminder, the EC50 is the concentration needed to bring the measured effect to its halfway point. The term CC50 denotes the concentration at which the toxic effect on the cells reaches its halfway point. In general, IC50 refers to the concentration that inhibits the measured activity by half. Read a high IC50 as weaker potency in that assay.

Description for in vitro: Selectivity index, ratio of CC50 for cytotoxicity against human MT4 cells assessed as reduction in cell viability to EC50 for antiviral activity against HIV-1 IIIb infected in human MT4 cells assessed as reduction in virus induced cytopathic effect

For `CS(=O)(=O)Nc1ccc2[nH]c(C(=O)N3CCC(Nc4nccc(Oc5ccccc5Br)n4)CC3)cc2c1`, the EC50 was greater than 17 µM in data set [1]; 6.8 µM in data set [4]; 3.8 µM in data set [5]; 3.7 µM in data set [6]; 7.1 µM in data set [7]; 0.79 µM in data set [8]. Further, the EC50 is greater than 17 µM in data set [9], 6.5 µM in [10] and 0.27 µM in [11]. The CC50 at 120 h in [2] came out at 17 µM. The same compound registered an IC50 in data set [3] of 1.4 µM. Moreover, the selectivity ratio in the data set “in vitro” was 60.

Regarding `CS(=O)(=O)Nc1ccc2[nH]c(C(=O)N3CCC(Nc4nccc(Oc5ccc(Br)cc5)n4)CC3)cc2c1`, the concentration for a half-maximal effect (EC50) is greater than 9.1 µM in data set [1]; 7.1 µM in data set [4]; 8.2 µM in [5]; greater than 9.1 µM in data set [6]; greater than 9.1 µM in data set [7]; 6.7 µM in data set [8]. In addition, the figures for the EC50 in data set [9], in [10] and in data set [11] were greater than 9.1 µM, greater than 9.1 µM and 0.87 µM, respectively. Further, the CC50 at 120 h in [2] came out at 9.1 µM. Besides, in data set [3], the IC50 is 2.2 µM. Besides, the selectivity ratio in “in vitro” was determined as 10.

With `CS(=O)(=O)Nc1ccc2[nH]c(C(=O)N3CCC(Nc4nccc(Oc5cccc(C(F)(F)F)c5)n4)CC3)cc2c1`, the EC50 was greater than 16 µM in data set [1]; greater than 16 µM in [4]; greater than 16 µM in data set [5]; greater than 16 µM in data set [6]; greater than 16 µM in [7]; 4.2 µM in [8]. Further, the concentration for a half-maximal effect (EC50) in data set [9] is greater than 16 µM; in data set [10] it was greater than 16 µM; in [11], 1 µM. The CC50 at 120 h in data set [2] came out at 16 µM. This compound also returned an IC50 in data set [3] of 1.8 µM. Moreover, the selectivity ratio in the data set “in vitro” came out at 16.

For `CS(=O)(=O)Nc1ccc2[nH]c(C(=O)N3CCC(Nc4nccc(Oc5cccc(F)c5)n4)CC3)cc2c1`, the EC50 in [1] is greater than 15 µM; in [4] it was greater than 15 µM; in data set [5], greater than 15 µM; in data set [6] it was greater than 15 µM; in data set [7], greater than 15 µM; in data set [8], 7.3 µM. The EC50 in data set [9] is greater than 15 µM; in data set [10], greater than 15 µM; in [11] it was 5.7 µM. For the same compound, the half-maximal cytotoxic concentration (CC50) at 120 h in data set [2] worked out at 15 µM. This compound also registered an IC50 in [3] of 4.2 µM. Besides, in “in vitro”, the selectivity ratio was found to be 3.

Regarding `CS(=O)(=O)Nc1ccc2[nH]c(C(=O)N3CCC(Nc4nccc(Oc5cccc(Br)c5)n4)CC3)cc2c1`, the EC50 in [1] was greater than 14 µM; in data set [4] it was 7.2 µM; in [5] it was 7.6 µM; in data set [6], 8.1 µM; in [7], greater than 14 µM; in data set [8], 3.5 µM. The EC50 was greater than 14 µM in data set [9], 8.1 µM in [10] and 0.67 µM in data set [11]. For the same compound, the CC50 at 120 h in [2] was determined as 14 µM. The same compound returned an IC50 in [3] of 3.4 µM. For the same compound, the selectivity ratio in the data set “in vitro” is 21.

In the case of `CS(=O)(=O)Nc1ccc2[nH]c(C(=O)N3CCC(Nc4nccc(Oc5ccc(C(F)(F)F)cc5)n4)CC3)cc2c1`, the EC50 is greater than 18 µM in data set [1]; greater than 18 µM in data set [4]; greater than 18 µM in [5]; greater than 18 µM in [6]; greater than 18 µM in data set [7]; 5.7 µM in [8]. In addition, the figures for the EC50 in [9], in data set [10] and in data set [11] were greater than 18 µM, greater than 18 µM and 1.8 µM, respectively. The CC50 at 120 h in data set [2] came to 18 µM. Also, in [3], 1.3 µM corresponded to half-maximal inhibition (IC50). Further, the selectivity ratio in “in vitro” stood at 10.

The values are drawn from ChEMBL document CHEMBL5321204, “Hybrids of delavirdine and piperdin-4-yl-aminopyrimidines (DPAPYs) as potent HIV-1 NNRTIs: Design, synthesis and biological activities” (Eur J Med Chem, 2023).
